According to patent US11324821B2, “Triterpene saponin analogues” (ADJUVANCE TECHNOLOGIES, INC., priority 2017, dated 2022):
“And” between values parts separate entries of the source, which are not always exact repeats. Equal values may be shown once.

Legend:
Type in all cases: in vivo, mice
GB208_1 = experiment: INFγ ELISPOT, total splenocytes, responses to GB208_1; details: re-stimulation GB208_1 10 μg/ml, per mouse
Method: (§1) The impact of synthetic TQL-1055 (Compound I-4) on CD4 and CD8 T cell responses to peptides was tested in mice as a single adjuvant and in combination with Genocea Biosciences GEN-AS2 adjuvant and sGenocea Biosciences GEN-AS3 adjuvant according to the plan in the table below. The GEN-AS2 and GEN-AS3 adjuvant are TLR agonist-based adjuvant systems. Specific peptides tested include Genocea synthetic long peptides (SLPs) GB208_1, GB208_4, GB208_8, which are tumor-specific T cell antigens identified by neo-antigen screening, however the results are expected to replicate to other types of peptides. Combinations including an adjuvant composition with the SLPs were administered to mice via s.c. scruff according to the plan below. Injections were administered to groups according to the plan in the table below. Responses in mice were measured seven (7) or fourteen (14) days after the final injection.
(§2) T cell responses were measured by the following ELISPOT analyses: • 1. Total splenocytes: • a. Combined responses to GB208_1, _4, _8; re-stimulation with overlapping peptides (OLPs) at 10 μg/ml; • b. Responses to GB208_1; re-stimulation GB208_1 at 10 μg/ml; • c. Responses to GB208_4; re-stimulation GB208_4 at 10 μg/ml; • d. Responses to GB208_8; re-stimulation GB208_8 at 10 μg/ml; • 2. CD4 enriched: combined responses to GB208_1, _4, _8; re-stimulation with overlapping peptides at 20 μg/ml; and • 3. CD8 enriched: combined responses to GB208_1, _4, _8; re-stimulation with overlapping peptides at 20 μg/ml. Specific resulting data is shown in FIGS. 2-8 and in the tables below.
(§3) The values in Tables 3a-f results are spot forming units per 800,000 cells. A value of 2000 was used if spots exceeded the upper limit of detection. All groups had n=5, except groups 1, 2, and 3, which had four mice in each group.

GB208_4 = experiment: INFγ ELISPOT, total splenocytes, responses to GB208_4; details: re-stimulation GB208_4 10 μg/ml, per mouse
Method: as §1, §2, §3

GB208_8 = experiment: INFγ ELISPOT, total splenocytes, responses to GB208_8; details: re-stimulation GB208_8 10 μg/ml, per mouse
Method: as §1, §2, §3

GB208_1, _4, _8 [1] = experiment: INFγ ELISPOT, total splenocytes, combined responses to GB208_1, _4, _8 (overlapping peptides); details: re-stimulation OLPs 10 μg/ml, per mouse
Method: as §1, §2, §3

CD4 enriched = experiment: ELISPOT, CD4 enriched cells, combined responses to GB208_1, _4, _8; details: re-stimulation overlapping peptides 20 μg/ml
Method: as §1, §2
(§4) The values in Tables 3g-h results are spot forming units per 500,000 cells. A value of 2000 was used if spots exceeded the upper limit of detection.

CD8 enriched = experiment: ELISPOT, CD8 enriched cells, combined responses to GB208_1, _4, _8; details: re-stimulation overlapping peptides 20 μg/ml
Method: as §1, §2, §4

GB208_1, _4, _8 [2] = experiment: Endpoint titer, total IgG response to GB208_1, _4, _8; details: FIG. 7, total IgG endpoint titer
Method: FIG. 7 depicts data showing enpoint titer data for total IgG response to GB208_1, _4, _8 for each group tested in Example 2.
as §1

[3] = Group 2: no antigen, 50 μg TQL-1055, days 0, 7
[4] = Group 5: 150 μg SLPs + 10 μg TQL-1055, days 0, 7
[5] = Group 6: 150 μg SLPs + 25 μg TQL-1055, days 0, 7
[6] = Group 7: 150 μg SLPs + 50 μg TQL-1055, days 0, 7
[7] = Group 8: 150 μg SLPs + 100 μg TQL-1055, days 0, 7
[8] = Group 11: 150 μg SLPs + 50 μg TQL-1055, days 0, 14

With `CC1O[C@@H](OC2C(O)[C@@H](NC(=O)CCCCCCCCCCC(=O)O)C(CO)O[C@H]2OC(=O)[C@]23CCC(C)(C)CC2C2=CCC4C5(C)CC[C@H](O)C(C)(C=O)C5CCC4(C)[C@]2(C)CC3O)C(O)C(O)[C@H]1O[C@@H]1OC[C@@H](O)C(O)C1O` (stereo partly shown) [TQL-1055] the “SLP1-specific INFγ responses in splenocytes” value (from here on “SLP1-specific INFγ responses”) (GB208_1; [3]) was 0 spot forming units per 800,000 cells, the “SLP1-specific INFγ responses” value (GB208_1; [4]) was 0 spot forming units per 800,000 cells (2×) and 4 spot forming units per 800,000 cells and 11 spot forming units per 800,000 cells and 5 spot forming units per 800,000 cells and the “SLP1-specific INFγ responses” value (GB208_1; [5]) was 3 spot forming units per 800,000 cells and 4 spot forming units per 800,000 cells and 25 spot forming units per 800,000 cells and 12 spot forming units per 800,000 cells and 30 spot forming units per 800,000 cells. The “SLP1-specific INFγ responses” value (GB208_1; [6]) was 3 spot forming units per 800,000 cells and 13 spot forming units per 800,000 cells and 4 spot forming units per 800,000 cells and 18 spot forming units per 800,000 cells and 25 spot forming units per 800,000 cells, the “SLP1-specific INFγ responses” value (GB208_1; [7]) was 0 spot forming units per 800,000 cells and 5 spot forming units per 800,000 cells and 7 spot forming units per 800,000 cells and 29 spot forming units per 800,000 cells and 3 spot forming units per 800,000 cells and the “SLP1-specific INFγ responses” value (GB208_1; [8]) was 3 spot forming units per 800,000 cells (2×) and 20 spot forming units per 800,000 cells and 94 spot forming units per 800,000 cells and 4 spot forming units per 800,000 cells. For the same molecule, the “SLP4-specific INFγ responses in splenocytes” value (shortened to “SLP4-specific INFγ responses”) (GB208_4; [3]) was 0 spot forming units per 800,000 cells, the “SLP4-specific INFγ responses” value (GB208_4; [4]) was 31 spot forming units per 800,000 cells and 135 spot forming units per 800,000 cells and 21 spot forming units per 800,000 cells and 183 spot forming units per 800,000 cells and 72 spot forming units per 800,000 cells and the “SLP4-specific INFγ responses” value (GB208_4; [5]) was 102 spot forming units per 800,000 cells and 70 spot forming units per 800,000 cells and 431 spot forming units per 800,000 cells and 22 spot forming units per 800,000 cells and 169 spot forming units per 800,000 cells. For the same molecule, the “SLP4-specific INFγ responses” value (GB208_4; [6]) was 68 spot forming units per 800,000 cells and 23 spot forming units per 800,000 cells and 142 spot forming units per 800,000 cells and 93 spot forming units per 800,000 cells and 42 spot forming units per 800,000 cells, the “SLP4-specific INFγ responses” value (GB208_4; [7]) was 30 spot forming units per 800,000 cells and 37 spot forming units per 800,000 cells and 19 spot forming units per 800,000 cells and 76 spot forming units per 800,000 cells and 78 spot forming units per 800,000 cells and the “SLP4-specific INFγ responses” value (GB208_4; [8]) was 43 spot forming units per 800,000 cells and 96 spot forming units per 800,000 cells and 31 spot forming units per 800,000 cells and 258 spot forming units per 800,000 cells and 79 spot forming units per 800,000 cells. The “SLP8-specific INFγ responses in splenocytes” value (“SLP8-specific INFγ responses” below) (GB208_8; [3]) was 0 spot forming units per 800,000 cells (3×) and 2 spot forming units per 800,000 cells, the “SLP8-specific INFγ responses” value (GB208_8; [4]) was 0 spot forming units per 800,000 cells (2×) and 13 spot forming units per 800,000 cells and 15 spot forming units per 800,000 cells and 16 spot forming units per 800,000 cells and the “SLP8-specific INFγ responses” value (GB208_8; [5]) was 21 spot forming units per 800,000 cells (2×) and 5 spot forming units per 800,000 cells and 53 spot forming units per 800,000 cells and 3 spot forming units per 800,000 cells. For the same molecule, the “SLP8-specific INFγ responses” value (GB208_8; [6]) was 29 spot forming units per 800,000 cells and 5 spot forming units per 800,000 cells and 55 spot forming units per 800,000 cells and 286 spot forming units per 800,000 cells and 20 spot forming units per 800,000 cells, the “SLP8-specific INFγ responses” value (GB208_8; [7]) was 15 spot forming units per 800,000 cells and 0 spot forming units per 800,000 cells and 2 spot forming units per 800,000 cells and 29 spot forming units per 800,000 cells and 4 spot forming units per 800,000 cells and the “SLP8-specific INFγ responses” value (GB208_8; [8]) was 59 spot forming units per 800,000 cells and 33 spot forming units per 800,000 cells and 93 spot forming units per 800,000 cells and 164 spot forming units per 800,000 cells and 136 spot forming units per 800,000 cells. For the same molecule, the “INFγ responses in splenocytes to SLPs 1, 4, 8” value (from here on “INFγ responses … 4, 8”) (GB208_1, _4, _8 [1]; [3]) was 0.5 spot forming units per 800,000 cells (2×) and 2.5 spot forming units per 800,000 cells and 2 spot forming units per 800,000 cells, the “INFγ responses … 4, 8” value (GB208_1, _4, _8 [1]; [4]) was 12.5 spot forming units per 800,000 cells and 20 spot forming units per 800,000 cells and 11 spot forming units per 800,000 cells and 115 spot forming units per 800,000 cells and 53 spot forming units per 800,000 cells and the “INFγ responses … 4, 8” value (GB208_1, _4, _8 [1]; [5]) was 104.5 spot forming units per 800,000 cells and 39 spot forming units per 800,000 cells and 338 spot forming units per 800,000 cells and 12.5 spot forming units per 800,000 cells and 167.5 spot forming units per 800,000 cells. For the same molecule, the “INFγ responses … 4, 8” value (GB208_1, _4, _8 [1]; [6]) was 56 spot forming units per 800,000 cells and 32 spot forming units per 800,000 cells and 138 spot forming units per 800,000 cells and 139 spot forming units per 800,000 cells and 59.5 spot forming units per 800,000 cells, the “INFγ responses … 4, 8” value (GB208_1, _4, _8 [1]; [7]) was 42.5 spot forming units per 800,000 cells and 22 spot forming units per 800,000 cells and 17 spot forming units per 800,000 cells and 74.5 spot forming units per 800,000 cells and 73 spot forming units per 800,000 cells and the “INFγ responses … 4, 8” value (GB208_1, _4, _8 [1]; [8]) was 70 spot forming units per 800,000 cells and 85 spot forming units per 800,000 cells and 32.5 spot forming units per 800,000 cells and 319.5 spot forming units per 800,000 cells and 112 spot forming units per 800,000 cells. For the same molecule, the “CD4 Responses, OLP pool SLP 1, 4, 8” value (CD4 enriched; [3]) was 0 spot forming units per 500,000 cells, the “CD4 Responses, OLP pool SLP 1, 4, 8” value (CD4 enriched; [4]) was 48.5 spot forming units per 500,000 cells and the “CD4 Responses, OLP pool SLP 1, 4, 8” value (CD4 enriched; [5]) was 149.5 spot forming units per 500,000 cells. For the same molecule, the “CD4 Responses, OLP pool SLP 1, 4, 8” value (CD4 enriched; [6]) was 88.5 spot forming units per 500,000 cells, the “CD4 Responses, OLP pool SLP 1, 4, 8” value (CD4 enriched; [7]) was 28.5 spot forming units per 500,000 cells and the “CD4 Responses, OLP pool SLP 1, 4, 8” value (CD4 enriched; [8]) was 79 spot forming units per 500,000 cells. For the same molecule, the “CD8 Responses, OLP pool SLP 1, 4, 8” value (CD8 enriched; [3]) was 2.5 spot forming units per 500,000 cells, the “CD8 Responses, OLP pool SLP 1, 4, 8” value (CD8 enriched; [4]) was 6.5 spot forming units per 500,000 cells and the “CD8 Responses, OLP pool SLP 1, 4, 8” value (CD8 enriched; [5]) was 5 spot forming units per 500,000 cells. The “CD8 Responses, OLP pool SLP 1, 4, 8” value (CD8 enriched; [6]) was 5.5 spot forming units per 500,000 cells, the “CD8 Responses, OLP pool SLP 1, 4, 8” value (CD8 enriched; [7]) was 6.5 spot forming units per 500,000 cells and the “CD8 Responses, OLP pool SLP 1, 4, 8” value (CD8 enriched; [8]) was 3.5 spot forming units per 500,000 cells. For the same molecule, the “antibody response for antibodies specific to GB208_1, _4, and _8 compared with GEN-AS3” value (GB208_1, _4, _8 [2]) was “in line with or better than GEN-AS3”.
